Source: US11794009B2, “Devices, systems and methods for treating urological and gastrointestinal disorders by electrical stimulation of the foot” (priority 2014, dated 2023)

Legend:
[1] = test system: bladder overactivity induced by 0.25% acetic acid (AA) irritation; experiment: Cystometrogram (CMG) bladder capacity during 0.25% acetic acid (AA) infusion in anesthetized cats, duloxetine / WAY100635 with and without foot stimulation; assay type: in vivo, cat
Experimental: Experiments were performed in a total of 8 adult anesthetized cats (5 female and 3 male cats between 3.1-4.4 kg). Each cat was anesthetized with isoflurane (2-3% in O2) during surgery and then changed to α-chloralose (65 mg/kg, supplemented as necessary) anesthesia during data collection. A pulse oximeter (9847V, Nonin Medical Inc., Plymouth, MN, USA) with the sensor attached to the tongue was used to monitor heart rate and blood oxygen saturation. Catheters were inserted in the right cephalic vein and right carotid artery for intravenous infusion of drugs and monitoring systemic blood pressure, respectively. Airway access was secured with a tracheostomy tube. Ureters were accessed through a midline abdominal incision and drained externally. The bladder was then cannulated with a double lumen catheter through a small cut at the proximal urethra to infuse saline or 0.25% AA and simultaneously measure bladder pressure. The proximal urethra was tied to prevent leakage. Fur was removed from the right hind foot and two self-adhesive pad electrodes (Grass FE10ND, Astro-Medical Inc., Mentor, OH, USA; diameter 1 cm) were attached to the skin at the bottom of the foot. One electrode was at the front of the foot and the other was at the heel (Chen G et al. Post-stimulation inhibitory effect on reflex bladder activity induced by activation of somatic afferent nerves in the foot. J Urol 187: 338-343, 2012; Tai C et al. Suppression of bladder overactivity by activation of somatic afferent nerves in the foot. BJU Int 107: 303-309, 2011).
Uniphasic rectangular pulses (5 Hz frequency, 0.2 ms pulsewidth) were delivered to the surface electrodes on the foot. Stimulation intensity threshold (T) was defined as the minimal intensity to induce a toe twitch. […] BJU Int 107: 303-309, 2011). Initially the bladder capacity was determined during cystometrograms (CMGs) by slowly infusing the bladder with saline. Multiple CMGs were performed to ensure reproducibility of the saline control capacity.
Bladder capacity was defined as the bladder volume threshold required to induce a micturition contraction of large amplitude (>30 cm H2O) and long duration (>20 seconds). Then, repeated CMGs were performed with infusion of 0.25% AA to irritate the bladder, activate nociceptive bladder afferent C-fibers, and induce bladder overactivity. When the bladder capacity stabilized, four CMGs were performed with AA infusion (Infusion rate=2 mL/min) prior to the administration of duloxetine: (1) control without stimulation, (2) during 2 T stimulation, (3) during 4 T stimulation, and (4) control without stimulation to determine any post-stimulation effect. The bladder was emptied at the end of each CMG and a 3-5 minute rest period was inserted between CMGs.
After the pre-drug CMGs were performed, increasing cumulative doses (0.003, 0.01, 0.03, 0.1, 0.3, 1, and 3 mg/kg, i.v.) of duloxetine (Selleck Chemicals, Houston, TX) were given to determine the drug effect on bladder capacity. Ten minutes after administering each dose of duloxetine, the four CMGs were again performed with AA infusion under different conditions (control, 2 T stimulation, 4 T stimulation, and post-stimulation control). The four repeated CMGs were completed within 40-60 minutes. In 4 cats 50-70 minutes after giving the maximal dose of duloxetine (3 mg/kg), WAY100635 (Sigma-Aldrich, St. Louis, MO), a 5HT1A antagonist, was administered (0.5 mg/kg, i.v.) to block 5HT1A inhibitory autoreceptors on serotonergic neurons in the raphe nucleus in an attempt to enhance the serotonergic inhibitory influence of duloxetine on bladder reflexes. Five minutes after administration of WAY100635, we performed control CMGs without stimulation to examine the combined effect of WAY100635 and duloxetine on bladder capacity.
For each CMG, bladder capacity was normalized to the initial saline control capacity in the same animal, which allowed for comparisons between animals.

[2] = test system: bladder overactivity induced by 0.25% acetic acid (AA) irritation; conditions: 0.5168 mg/kg dose alone (references 20, 31, 36); cited from earlier work
[3] = test system: bladder overactivity induced by 0.25% acetic acid (AA) irritation; experiment: Cystometrogram (CMG) bladder capacity during 0.25% acetic acid (AA) infusion in anesthetized cats, tolterodine with and without foot stimulation; assay type: in vivo, cat; conditions: for bladder capacity: AA infusion
Experimental: Experiments were conducted in a total of 6 adult cats (4 female and 2 male cats between 2.8-3.8 kg) under achloralose anesthesia (65 mg/kg, supplemented as necessary) after induction with isoflurane (2-3% in O2). Heart rate and blood oxygen level were monitored with a pulse oximeter (9847 V, Nonin Medical Inc., Plymouth, MN, USA) that was attached to the tongue. Systemic blood pressure was monitored via a catheter in the right carotid artery. These physiological parameters were monitored to ensure that the animal's vital functions remained relatively stable during the entire experiment. Drugs or fluids were administered through a catheter in the right cephalic vein and airway access was secured with a tracheostomy tube. Ureters were accessed through a midline abdominal incision and drained externally. The bladder was cannulated through the urethra with a double lumen catheter to infuse (1-2 ml/min) saline or 0.25% acetic acid (AA) via one lumen and measure bladder pressure via another lumen. A ligature was tied around the proximal urethra to prevent leakage. Fur was removed from the foot and two self-adhesive pad electrode (Grass FE10ND, Astro-Medical Inc., Mentor, OH, USA; diameter 1 cm) were attached to the skin at the bottom of the left hind foot. One electrode was at the front of the foot and the other was at the heel.
Uniphasic rectangular pulses (5 Hz frequency, 0.2 ms pulsewidth) were delivered to the skin electrodes on the foot. Threshold (T) stimulation intensity (3-16 V), which was defined as the minimal intensity to induce an observable toe twitch, was determined by slowly increasing the stimulation intensity at the beginning of the experiment. […] The initial bladder capacity was determined during a cystometrogram (CMG) by slowly infusing the bladder with saline. Bladder capacity was defined as the bladder volume threshold to induce a bladder reflex contraction of large amplitude (>30 cm H2O) and long duration (>20 seconds).
Multiple CMGs were performed to determine reproducibility of the saline control capacity. Then, repeated CMGs were performed with AA infusion to irritate the bladder, activate nociceptive bladder C-fiber afferents, and induce bladder overactivity. Once the irritated bladder capacity was stabilized, four CMGs were performed prior to drug administration: 1. control CMG without stimulation; 2. CMG during 2 T stimulation; 3. CMG during 4 T stimulation; and 4. control CMG without stimulation to determine any post-stimulation effect. Increasing cumulative doses of tolterodine (tolterodine L-tartrate, Tocris Bioscience, Bristol, UK) were then administered (0.003, 0.01, 0.03, 0.1, and 0.3 mg/kg, i.v.). Ten minutes after administering each dose of tolterodine, the CMGs were performed again under the four different conditions (control, 2 T stimulation, 4 T stimulation, and post-stimulation control) to determine the drug effect on bladder capacity. The bladder was emptied after each CMG followed by a 3-5 min rest period to allow the distended detrusor to recover.
For the repeated CMG recordings, bladder capacity was normalized to the initial saline control capacity in the same animal to allow comparisons between animals. Capacity measurements under the same conditions were averaged and reported as mean±standard error of the mean (SEM). The mean amplitude of the bladder reflex contraction was also measured during each CMG and normalized to the AA control CMG to determine the effect of tolterodine on detrusor contractility. Statistical significance (p<0.05) was detected by ANOVA followed by Dunnett or Bonferroni post-tests.

COc1ccccc1N1CCN(CCN(C(=O)C2CCCCC2)c2ccccn2)CC1 [WAY100635]
bladder capacity ([1]; WAY100635 0.5168 mg/kg i.v. after final 3 mg/kg dose of duloxetine, no stimulation, N=4 cats, p=0.008): 162.2±22.5 % of saline control | effect of WAY100635 alone on bladder capacity [2]: does not affect bladder capacity

CNCC[C@H](Oc1cccc2ccccc12)c1cccs1 [duloxetine]
effect on AA-induced overactivity ([1]; 3 mg/kg i.v., absence of stimulation): completely removed AA-induced overactivity | post-stimulation effect on bladder capacity ([1]; after 2 T and 4 T stimulation in duloxetine treated animals): absence of a post-stimulation effect | effect of foot stimulation on capacity when combined with duloxetine ([1]; after doses 0.003 mg/kg to 0.03 mg/kg i.v.): significantly (p<0.05) increased capacity | effect of foot stimulation on capacity when combined with duloxetine ([1]; after doses between 0.1 mg/kg and 3 mg/kg i.v.): did not significantly increase capacity | bladder capacity ([1]; after final 3 mg/kg dose of duloxetine, before WAY100635, no stimulation, N=4 cats): 117.3±17.6 % of saline control | effect on bladder capacity during AA infusion ([1]; doses 0.1-3 mg/kg i.v., absence of stimulation): dose-dependently and significantly (p<0.05) increased bladder capacity | bladder capacity ([1]; duloxetine 3 mg/kg i.v. (cumulative), AA infusion, absence of stimulation, N=8 cats): 109±15.5 % of saline control | bladder capacity ([1]; duloxetine 3 mg/kg i.v., AA infusion, during 2 T foot stimulation (5 Hz, 0.2 ms)): 129.3±23.2 % of saline control | bladder capacity ([1]; duloxetine 3 mg/kg i.v., AA infusion, during 4 T foot stimulation (5 Hz, 0.2 ms)): 129.2±25.8 % of saline control

Cc1ccc(O)c([C@H](CCN(C(C)C)C(C)C)c2ccccc2)c1 [tolterodine]
effect on control bladder capacity ([3]; 0.1 mg/kg i.v., absence of stimulation): not effective in significantly increasing control bladder capacity | amplitude of bladder reflex contractions ([3]; 0.003-0.3 mg/kg i.v., control, 2 T or 4 T foot stimulation CMGs): did not alter the amplitude of bladder reflex contractions | total inhibitory effect of tolterodine combined with foot stimulation ([3]; 2 T and 4 T foot stimulation, every dosage): additive | post-stimulation effect on bladder capacity ([3]; after 2 T and 4 T stimulation, every dose of tolterodine): no post-stimulation effect was observed | effect on bladder capacity during AA infusion CMGs ([3]; cumulative doses 0.003-0.3 mg/kg i.v., absence of foot stimulation): increased bladder capacity dose dependently | bladder capacity ([3]; tolterodine 0.1 mg/kg i.v., 4 T foot stimulation): 97.0±11.2 % of saline control | bladder capacity ([3]; tolterodine 0.3 mg/kg i.v. (cumulative), absence of foot stimulation, N=6 cats): 65.6±15.5 % of the saline control capacity | bladder capacity ([3]; tolterodine 0.3 mg/kg i.v., 2 T foot stimulation): 86.2±6.2 % of the saline control | bladder capacity ([3]; tolterodine 0.3 mg/kg i.v., 4 T foot stimulation): 107.9±10.6 % of the saline control | threshold pressure for inducing a micturition reflex ([3]; tolterodine 0.3 mg/kg i.v., 5.0±1.3 cm H2O before treatment): 8.1±1.4 cm H2O
